In patent US8802597B2, “Herbicidal pyrimidines” (E I du Pont de Nemours and Company, priority 2003, dated 2014):

Columns and labels:
Test in all cases: Test C flooded paddy test
Format in all cases: in vivo
[1] = tested on: duck salad (Heteranthera limosa); conditions: Flood, scale 0 to 100
Method: (§1) At the same time, plants selected from these crop and weed species and also winter barley (Hordeum vulgare), blackgrass (Alopecurus myosuroides), canarygrass (Phalaris minor), chickweed (Stellaria media), downy brome (Bromus tectorum), green foxtail (Setaria viridis), Italian ryegrass (Lolium multiflorum), wheat (Triticum aestivum), wild oat (Avena fatua) and windgrass (Apera spica-venti) were treated with postemergence applications of some of the test chemicals formulated in the same manner. Plants ranged in height from 2 to 18 cm (1- to 4-leaf stage) for postemergence treatments. Plant species in the flooded paddy test consisted of rice (Oryza sativa), umbrella sedge (Cyperus difformis), duck salad (Heteranthera limosa) and barnyardgrass (Echinochloa crus-galli) grown to the 2-leaf stage for testing. Treated plants and controls were maintained in a greenhouse for 12 to 14 days, after which time all species were compared to controls and visually evaluated. Plant response ratings, summarized in Table C, are based on a scale of 0 to 100 where 0 is no effect and 100 is complete control. A dash (-) response means no test result.

[2] = tested on: umbrella sedge (Cyperus difformis); conditions: Flood, scale 0 to 100
Method: as §1

[3] = tested on: rice (Oryza sativa); conditions: Flood, scale 0 to 100
Method: as §1

[4] = tested on: barnyardgrass (Echinochloa crus-galli); conditions: Flood
Method: as §1

[5] = 500 g ai/ha, scale 0 to 100 (0 no effect, 100 complete control)

CNc1nc(C2CC2)nc(C(=O)OC)c1Br [Compound 5]
Plant response rating, Ducksalad ([1]; 62 g ai/ha): 0 | Plant response rating, Ducksalad ([1]; 125 g ai/ha): 0 | Plant response rating, Ducksalad ([1]; 250 g ai/ha): 0 | Plant response rating, Ducksalad ([1]; 500 g ai/ha): 0 | Plant response rating, Sedge, Umbrella ([2]; 62 g ai/ha): 0 | Plant response rating, Sedge, Umbrella ([2]; 125 g ai/ha): 0 | Plant response rating, Sedge, Umbrella ([2]; 250 g ai/ha): 0 | Plant response rating, Sedge, Umbrella ([2]; 500 g ai/ha): 0 | Plant response rating, Rice ([3]; 62 g ai/ha): 0 | Plant response rating, Rice ([3]; 125 g ai/ha): 0 | Plant response rating, Rice ([3]; 250 g ai/ha): 0 | Plant response rating, Rice ([3]; 500 g ai/ha): 0 | Plant response rating, Barnyardgrass ([4]; 62 g ai/ha, scale 0 to 100): 0 | Plant response rating, Barnyardgrass ([4]; 125 g ai/ha, scale 0 to 100): 0 | Plant response rating, Barnyardgrass ([4]; 250 g ai/ha, scale 0 to 100): 0 | Plant response rating, Barnyardgrass [4, 5]: 20

COC(=O)c1nc(C2CC2)nc(N)c1Cl [Compound 9, methyl 6-amino-5-chloro-2-cyclopropyl-4-pyrimidinecarboxylate]
Plant response rating, Ducksalad ([1]; 62 g ai/ha): 45 | Plant response rating, Ducksalad ([1]; 125 g ai/ha): 70 | Plant response rating, Ducksalad ([1]; 250 g ai/ha): 80 | Plant response rating, Ducksalad ([1]; 500 g ai/ha): 90 | Plant response rating, Sedge, Umbrella ([2]; 62 g ai/ha): 0 | Plant response rating, Sedge, Umbrella ([2]; 125 g ai/ha): 15 | Plant response rating, Sedge, Umbrella ([2]; 250 g ai/ha): 15 | Plant response rating, Sedge, Umbrella ([2]; 500 g ai/ha): 85 | Plant response rating, Rice ([3]; 62 g ai/ha): 0 | Plant response rating, Rice ([3]; 125 g ai/ha): 30 | Plant response rating, Rice ([3]; 250 g ai/ha): 55 | Plant response rating, Rice ([3]; 500 g ai/ha): 75 | Plant response rating, Barnyardgrass ([4]; 62 g ai/ha, scale 0 to 100): 0 | Plant response rating, Barnyardgrass ([4]; 125 g ai/ha, scale 0 to 100): 15 | Plant response rating, Barnyardgrass ([4]; 250 g ai/ha, scale 0 to 100): 55 | Plant response rating, Barnyardgrass [4, 5]: 85

CCCOC(=O)c1nc(C2CC2)nc(N)c1Br [Compound 15]
Plant response rating, Ducksalad ([1]; 62 g ai/ha): 45 | Plant response rating, Ducksalad ([1]; 125 g ai/ha): 45 | Plant response rating, Ducksalad ([1]; 250 g ai/ha): 50 | Plant response rating, Ducksalad ([1]; 500 g ai/ha): 85 | Plant response rating, Sedge, Umbrella ([2]; 62 g ai/ha): 0 | Plant response rating, Sedge, Umbrella ([2]; 125 g ai/ha): 0 | Plant response rating, Sedge, Umbrella ([2]; 250 g ai/ha): 10 | Plant response rating, Sedge, Umbrella ([2]; 500 g ai/ha): 25 | Plant response rating, Rice ([3]; 62 g ai/ha): 0 | Plant response rating, Rice ([3]; 125 g ai/ha): 0 | Plant response rating, Rice ([3]; 250 g ai/ha): 20 | Plant response rating, Rice ([3]; 500 g ai/ha): 50 | Plant response rating, Barnyardgrass ([4]; 62 g ai/ha, scale 0 to 100): 0 | Plant response rating, Barnyardgrass ([4]; 125 g ai/ha, scale 0 to 100): 0 | Plant response rating, Barnyardgrass ([4]; 250 g ai/ha, scale 0 to 100): 25 | Plant response rating, Barnyardgrass [4, 5]: 75

CCCCOC(=O)c1nc(C2CC2)nc(N)c1Br [Compound 16]
Plant response rating, Ducksalad ([1]; 62 g ai/ha): 65 | Plant response rating, Ducksalad ([1]; 125 g ai/ha): 65 | Plant response rating, Ducksalad ([1]; 250 g ai/ha): 75 | Plant response rating, Ducksalad ([1]; 500 g ai/ha): 85 | Plant response rating, Sedge, Umbrella ([2]; 125 g ai/ha): 0 | Plant response rating, Sedge, Umbrella ([2]; 250 g ai/ha): 50 | Plant response rating, Sedge, Umbrella ([2]; 500 g ai/ha): 55 | Plant response rating, Rice ([3]; 62 g ai/ha): 0 | Plant response rating, Rice ([3]; 125 g ai/ha): 0 | Plant response rating, Rice ([3]; 250 g ai/ha): 0 | Plant response rating, Rice ([3]; 500 g ai/ha): 65 | Plant response rating, Barnyardgrass ([4]; 62 g ai/ha, scale 0 to 100): 0 | Plant response rating, Barnyardgrass ([4]; 125 g ai/ha, scale 0 to 100): 0 | Plant response rating, Barnyardgrass ([4]; 250 g ai/ha, scale 0 to 100): 15 | Plant response rating, Barnyardgrass [4, 5]: 50
